{"source": "paper PMC12380724", "about": "“The air pollutant phenanthrene disrupts calcium cycling and alters repolarization in female sheep ventricular cardiomyocytes” (Physiological Reports, 2025)", "target": "T1, ERG channel (rapid delayed rectifier potassium channel, IKr) (Ovis aries, UniProt A0ACI6Q0V2)", "T1 construct": "gene KCNH2; native IKr in isolated left ventricular myocytes", "T1 sequence (A0ACI6Q0V2 1-1163)": "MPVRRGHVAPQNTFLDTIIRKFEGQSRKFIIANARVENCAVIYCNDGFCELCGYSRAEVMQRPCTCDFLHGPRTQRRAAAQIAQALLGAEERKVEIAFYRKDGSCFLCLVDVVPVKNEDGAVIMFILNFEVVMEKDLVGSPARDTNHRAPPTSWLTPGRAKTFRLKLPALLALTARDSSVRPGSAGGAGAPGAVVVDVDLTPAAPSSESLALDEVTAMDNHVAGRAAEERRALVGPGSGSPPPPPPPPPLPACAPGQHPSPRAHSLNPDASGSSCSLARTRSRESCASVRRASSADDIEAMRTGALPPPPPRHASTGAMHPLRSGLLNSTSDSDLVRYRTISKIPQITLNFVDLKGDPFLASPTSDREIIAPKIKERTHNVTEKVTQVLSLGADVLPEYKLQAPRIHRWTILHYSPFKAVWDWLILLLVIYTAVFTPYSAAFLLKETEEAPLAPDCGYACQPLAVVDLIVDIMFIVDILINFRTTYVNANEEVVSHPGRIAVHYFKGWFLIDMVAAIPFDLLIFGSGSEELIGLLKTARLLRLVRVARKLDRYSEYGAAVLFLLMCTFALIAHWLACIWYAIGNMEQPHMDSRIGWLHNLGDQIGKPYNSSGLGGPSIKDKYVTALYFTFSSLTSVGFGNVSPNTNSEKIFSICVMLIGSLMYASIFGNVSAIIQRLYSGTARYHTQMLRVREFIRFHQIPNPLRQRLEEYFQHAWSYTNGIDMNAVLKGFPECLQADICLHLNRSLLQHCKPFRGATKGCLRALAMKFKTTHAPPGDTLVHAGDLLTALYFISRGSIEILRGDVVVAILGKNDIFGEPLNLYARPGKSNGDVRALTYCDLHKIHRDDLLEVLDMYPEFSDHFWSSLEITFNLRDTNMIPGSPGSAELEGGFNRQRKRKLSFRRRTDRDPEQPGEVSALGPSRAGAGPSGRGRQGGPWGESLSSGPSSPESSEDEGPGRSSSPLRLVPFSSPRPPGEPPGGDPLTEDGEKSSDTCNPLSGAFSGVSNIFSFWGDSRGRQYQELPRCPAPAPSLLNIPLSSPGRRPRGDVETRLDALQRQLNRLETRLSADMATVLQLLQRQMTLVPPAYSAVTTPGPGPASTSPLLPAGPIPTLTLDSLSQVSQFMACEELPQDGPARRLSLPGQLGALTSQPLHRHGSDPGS", "assay": "whole-cell patch-clamp of native IKr tail current", "format": "cell-based"}
{"compound": "c1ccc2c(c1)ccc1ccccc12", "note": "[Phe, phenanthrene]", "values": [{"measurement": "inhibition at 25 µM", "value": 55.8, "unit": "%"}]}
